Test results as given in ChEMBL document CHEMBL1201862, “PubChem BioAssay data set” (2004).
Calls of active or inactive are those of the source.

Legend:
Cytochrome P450 2C9 = Cytochrome P450 2C9 (Homo sapiens, UniProt P11712)
Cytochrome P450 2C19 = Cytochrome P450 2C19 (Homo sapiens, UniProt P33261); assay: Cytochrome panel assay with activity outcomes. Panel member name: p450-cyp2c19 Compounds with AC50 equal or less than 10 uM are considered active; assay type: functional; conditions: read-out: AC50
Cytochrome P450 2D6 = Cytochrome P450 2D6 (Homo sapiens, UniProt P10635);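 further: CYP2D6 member of a cytochrome P450 panel assay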
Aminopeptidase N = molecular target: T1, Aminopeptidase N (Plasmodium falciparum FcB1/Columbia, UniProt O96935); assay: P. falciparum M1AAP inhibitors, biochemical, fluorogenic H-Leu-NHMec substrate, 1536-well (AID 1445); design: species or system Plasmodium falciparum 3D7, 3D7
T1 sequence (O96935 whole entry): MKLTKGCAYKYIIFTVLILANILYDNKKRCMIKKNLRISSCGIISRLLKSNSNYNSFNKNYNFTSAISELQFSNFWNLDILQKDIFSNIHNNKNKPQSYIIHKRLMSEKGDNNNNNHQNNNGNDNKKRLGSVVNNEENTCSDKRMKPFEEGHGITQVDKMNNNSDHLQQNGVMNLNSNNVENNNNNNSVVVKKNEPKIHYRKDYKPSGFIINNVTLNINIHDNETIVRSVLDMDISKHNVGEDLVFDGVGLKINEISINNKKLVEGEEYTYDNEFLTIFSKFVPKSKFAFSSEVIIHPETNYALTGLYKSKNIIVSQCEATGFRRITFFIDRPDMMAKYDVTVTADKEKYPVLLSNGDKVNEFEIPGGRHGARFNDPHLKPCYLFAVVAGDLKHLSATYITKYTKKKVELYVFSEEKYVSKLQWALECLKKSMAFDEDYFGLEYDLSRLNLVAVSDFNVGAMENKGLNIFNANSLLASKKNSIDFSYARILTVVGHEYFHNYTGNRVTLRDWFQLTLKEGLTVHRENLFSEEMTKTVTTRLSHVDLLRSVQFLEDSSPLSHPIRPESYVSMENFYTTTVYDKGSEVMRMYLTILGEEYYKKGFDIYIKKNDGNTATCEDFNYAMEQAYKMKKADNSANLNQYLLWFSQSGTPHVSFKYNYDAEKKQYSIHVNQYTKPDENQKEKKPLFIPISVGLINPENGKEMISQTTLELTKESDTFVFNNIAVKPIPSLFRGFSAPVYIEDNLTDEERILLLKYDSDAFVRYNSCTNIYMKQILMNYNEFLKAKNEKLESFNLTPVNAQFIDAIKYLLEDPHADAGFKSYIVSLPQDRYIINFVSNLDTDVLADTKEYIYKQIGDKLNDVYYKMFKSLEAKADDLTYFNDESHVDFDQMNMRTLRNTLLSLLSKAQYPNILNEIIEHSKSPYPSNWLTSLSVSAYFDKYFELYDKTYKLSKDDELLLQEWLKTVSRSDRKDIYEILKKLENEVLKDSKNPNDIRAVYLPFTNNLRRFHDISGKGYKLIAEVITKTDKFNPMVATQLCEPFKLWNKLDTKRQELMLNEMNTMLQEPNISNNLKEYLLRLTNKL

[1] = growth suppression of PTEN-null colon cells, dose response, cell-based, HCT116 PTEN knockout (AID 1047); assay type: functional;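 further: HCT116 colon tumor cells with PTEN knocked out; cells exposed to compound for 60 hours before readout; potency for loss of cell viability measured by luminescence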
[2] = growth suppression of beta-catenin-knockout colon cells, dose response, cell-based, HCT116, human colon tumor (AID 1045); assay type: functional;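 further: HCT116 colon tumor cells with beta catenin knocked out; cells exposed to compound for 60 hours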
[3] = molecular target: T2, Ubiquitin-conjugating enzyme E2 N (Homo sapiens, UniProt P61088); assay type: functional;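 further: Dose-response confirmation in a TR-FRET assay detecting UBC13-driven polyubiquitin chain formation, inhibition measured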
T2 sequence (P61088 whole entry): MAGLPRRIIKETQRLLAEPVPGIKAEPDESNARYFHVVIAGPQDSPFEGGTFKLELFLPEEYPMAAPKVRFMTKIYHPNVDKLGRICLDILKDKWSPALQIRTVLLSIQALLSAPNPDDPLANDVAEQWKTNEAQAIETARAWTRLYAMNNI

cells [4] = assay type: functional, cell-based
cells [5] = assay type: functional, cell-based; remark: listed apart in the source
Cytochrome P450 3A4 = Cytochrome P450 3A4 (Homo sapiens, UniProt P08684);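 further: CYP3A4 tested as one member of a cytochrome P450 panel screen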
Cytochrome P450 1A2 = molecular target: T3, Cytochrome P450 1A2 (Homo sapiens, UniProt P05177);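 further: PubChem cytochrome P450 panel assay, CYP1A2 panel member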
T3 sequence (P05177 whole entry): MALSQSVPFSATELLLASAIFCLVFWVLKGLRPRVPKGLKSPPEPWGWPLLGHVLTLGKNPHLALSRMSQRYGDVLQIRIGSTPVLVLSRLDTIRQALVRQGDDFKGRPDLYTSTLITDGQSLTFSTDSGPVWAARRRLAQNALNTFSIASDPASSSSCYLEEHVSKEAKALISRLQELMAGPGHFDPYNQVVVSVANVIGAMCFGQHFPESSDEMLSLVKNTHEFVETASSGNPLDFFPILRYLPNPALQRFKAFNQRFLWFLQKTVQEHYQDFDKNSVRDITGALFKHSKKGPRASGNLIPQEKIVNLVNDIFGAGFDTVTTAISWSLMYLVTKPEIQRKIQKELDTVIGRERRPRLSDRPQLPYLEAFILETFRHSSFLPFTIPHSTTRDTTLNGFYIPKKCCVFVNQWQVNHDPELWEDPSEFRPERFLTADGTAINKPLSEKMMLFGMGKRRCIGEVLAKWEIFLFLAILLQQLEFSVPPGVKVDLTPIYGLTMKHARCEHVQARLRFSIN

[6] = molecular target: T4, Replicative DNA helicase DnaB (Mycobacterium tuberculosis, UniProt P9WMR3); assay: DnaB intein splicing inhibitors, dose response, biochemical, cell-free fluorescence (AID 449749); assay type: functional
T4 sequence (P9WMR3 whole entry): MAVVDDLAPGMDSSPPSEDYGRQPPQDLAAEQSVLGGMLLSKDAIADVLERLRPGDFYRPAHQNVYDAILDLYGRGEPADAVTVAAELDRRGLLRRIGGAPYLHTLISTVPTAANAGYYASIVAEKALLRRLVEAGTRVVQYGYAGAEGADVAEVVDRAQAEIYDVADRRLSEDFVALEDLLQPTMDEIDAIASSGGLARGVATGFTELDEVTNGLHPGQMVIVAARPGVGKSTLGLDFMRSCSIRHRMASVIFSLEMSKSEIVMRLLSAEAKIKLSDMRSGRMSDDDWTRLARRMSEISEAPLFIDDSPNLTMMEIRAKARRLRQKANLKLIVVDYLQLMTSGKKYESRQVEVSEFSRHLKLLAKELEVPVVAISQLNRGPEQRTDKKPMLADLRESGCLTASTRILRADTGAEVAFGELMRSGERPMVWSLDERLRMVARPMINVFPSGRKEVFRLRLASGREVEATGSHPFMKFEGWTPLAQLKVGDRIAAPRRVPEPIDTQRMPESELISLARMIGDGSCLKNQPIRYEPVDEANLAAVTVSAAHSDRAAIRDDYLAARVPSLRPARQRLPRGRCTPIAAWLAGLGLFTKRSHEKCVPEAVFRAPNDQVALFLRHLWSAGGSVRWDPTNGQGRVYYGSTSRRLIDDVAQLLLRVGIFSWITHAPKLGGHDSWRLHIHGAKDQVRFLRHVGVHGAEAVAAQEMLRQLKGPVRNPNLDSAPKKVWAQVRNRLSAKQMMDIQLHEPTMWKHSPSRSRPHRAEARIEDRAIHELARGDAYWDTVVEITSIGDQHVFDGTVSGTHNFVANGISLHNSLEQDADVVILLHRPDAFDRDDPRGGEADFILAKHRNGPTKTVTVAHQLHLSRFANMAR

Protein RecA = molecular target: T5, Protein RecA (Mycobacterium tuberculosis, UniProt P9WHJ3); assay: Fluorescence Cell-Free Homogeneous Dose Retest to Identify Inhibitors of RecA-Intein Splicing Activity. [Related pubchem assays (depositor defined):AID2097, AID2223, AID489010, AID492950]; assay type: functional
T5 sequence (P9WHJ3 whole entry): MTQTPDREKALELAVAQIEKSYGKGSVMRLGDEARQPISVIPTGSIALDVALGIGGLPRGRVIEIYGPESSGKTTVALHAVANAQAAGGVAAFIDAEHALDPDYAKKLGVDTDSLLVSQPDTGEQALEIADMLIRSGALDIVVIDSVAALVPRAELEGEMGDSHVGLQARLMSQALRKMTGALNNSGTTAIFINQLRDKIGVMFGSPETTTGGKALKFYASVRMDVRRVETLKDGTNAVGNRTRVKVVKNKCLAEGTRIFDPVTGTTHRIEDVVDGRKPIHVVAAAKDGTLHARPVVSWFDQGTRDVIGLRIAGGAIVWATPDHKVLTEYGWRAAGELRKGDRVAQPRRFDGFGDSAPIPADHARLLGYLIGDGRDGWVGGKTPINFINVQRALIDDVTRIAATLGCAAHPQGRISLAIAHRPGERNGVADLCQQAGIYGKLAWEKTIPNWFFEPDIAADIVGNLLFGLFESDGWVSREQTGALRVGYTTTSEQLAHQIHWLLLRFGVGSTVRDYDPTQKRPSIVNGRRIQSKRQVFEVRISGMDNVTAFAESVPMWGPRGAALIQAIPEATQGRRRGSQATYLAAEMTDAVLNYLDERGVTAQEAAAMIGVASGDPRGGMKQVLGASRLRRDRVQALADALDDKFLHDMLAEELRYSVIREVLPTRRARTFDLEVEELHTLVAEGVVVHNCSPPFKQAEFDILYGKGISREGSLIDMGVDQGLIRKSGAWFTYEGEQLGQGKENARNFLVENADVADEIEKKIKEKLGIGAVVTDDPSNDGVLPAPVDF

[7] = molecular target: T6, Heat shock factor protein 1 (Mus musculus, UniProt P38532); assay: HSF1 potentiators in luciferase reporter cells, confirmation, cell-based, NIH3T3, luminescence, dose retest (AID 435004); assay type: functional;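 further: stress induced by proteasome inhibitor MG132 added 30 min after compound; luciferase reporter driven by HSF1 response element in NIH3T3 cells; actives raise luminescence as potentiators of the MG132 stress response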
T6 sequence (P38532 whole entry): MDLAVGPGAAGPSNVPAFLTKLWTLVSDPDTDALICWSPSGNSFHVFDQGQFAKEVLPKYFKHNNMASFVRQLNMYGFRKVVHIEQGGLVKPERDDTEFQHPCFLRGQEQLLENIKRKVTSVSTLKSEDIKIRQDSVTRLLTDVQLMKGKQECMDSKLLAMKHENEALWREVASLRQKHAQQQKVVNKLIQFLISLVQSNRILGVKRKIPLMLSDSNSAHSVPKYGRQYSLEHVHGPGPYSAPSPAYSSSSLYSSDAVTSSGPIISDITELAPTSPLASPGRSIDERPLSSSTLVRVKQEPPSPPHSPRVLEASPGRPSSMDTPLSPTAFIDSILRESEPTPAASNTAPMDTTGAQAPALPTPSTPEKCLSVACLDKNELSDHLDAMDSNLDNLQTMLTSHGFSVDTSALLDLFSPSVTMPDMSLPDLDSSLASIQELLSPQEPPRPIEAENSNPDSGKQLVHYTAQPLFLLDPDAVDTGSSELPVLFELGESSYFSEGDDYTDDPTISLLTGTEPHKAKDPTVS

Sequence of Cytochrome P450 3A4 (P08684 whole entry): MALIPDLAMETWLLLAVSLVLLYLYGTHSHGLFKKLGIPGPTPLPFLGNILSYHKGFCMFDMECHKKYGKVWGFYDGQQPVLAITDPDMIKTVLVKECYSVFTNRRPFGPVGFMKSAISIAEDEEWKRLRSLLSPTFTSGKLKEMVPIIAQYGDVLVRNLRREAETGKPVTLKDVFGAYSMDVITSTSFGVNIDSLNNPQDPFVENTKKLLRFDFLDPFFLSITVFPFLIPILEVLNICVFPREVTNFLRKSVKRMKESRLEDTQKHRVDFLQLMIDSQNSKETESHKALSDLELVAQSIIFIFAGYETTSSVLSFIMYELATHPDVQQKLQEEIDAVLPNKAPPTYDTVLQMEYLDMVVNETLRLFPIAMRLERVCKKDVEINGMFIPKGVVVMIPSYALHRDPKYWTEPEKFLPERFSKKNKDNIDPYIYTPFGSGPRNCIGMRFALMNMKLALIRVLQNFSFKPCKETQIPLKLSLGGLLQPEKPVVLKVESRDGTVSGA
Sequence of Cytochrome P450 2C9 (P11712 whole entry): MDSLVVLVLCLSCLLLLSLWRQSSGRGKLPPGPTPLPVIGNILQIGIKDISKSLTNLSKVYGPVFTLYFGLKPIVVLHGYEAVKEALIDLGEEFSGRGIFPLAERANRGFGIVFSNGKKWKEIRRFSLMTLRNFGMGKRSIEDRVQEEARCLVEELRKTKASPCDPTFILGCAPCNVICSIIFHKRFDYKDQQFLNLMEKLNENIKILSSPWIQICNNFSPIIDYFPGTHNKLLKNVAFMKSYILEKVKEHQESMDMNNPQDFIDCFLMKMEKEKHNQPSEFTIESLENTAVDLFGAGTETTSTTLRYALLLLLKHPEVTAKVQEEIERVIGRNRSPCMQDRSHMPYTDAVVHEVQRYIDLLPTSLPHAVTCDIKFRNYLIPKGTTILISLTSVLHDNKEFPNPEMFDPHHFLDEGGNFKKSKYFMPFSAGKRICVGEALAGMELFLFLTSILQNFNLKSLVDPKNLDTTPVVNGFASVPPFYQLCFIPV
Sequence of Cytochrome P450 2C19 (P33261 whole entry): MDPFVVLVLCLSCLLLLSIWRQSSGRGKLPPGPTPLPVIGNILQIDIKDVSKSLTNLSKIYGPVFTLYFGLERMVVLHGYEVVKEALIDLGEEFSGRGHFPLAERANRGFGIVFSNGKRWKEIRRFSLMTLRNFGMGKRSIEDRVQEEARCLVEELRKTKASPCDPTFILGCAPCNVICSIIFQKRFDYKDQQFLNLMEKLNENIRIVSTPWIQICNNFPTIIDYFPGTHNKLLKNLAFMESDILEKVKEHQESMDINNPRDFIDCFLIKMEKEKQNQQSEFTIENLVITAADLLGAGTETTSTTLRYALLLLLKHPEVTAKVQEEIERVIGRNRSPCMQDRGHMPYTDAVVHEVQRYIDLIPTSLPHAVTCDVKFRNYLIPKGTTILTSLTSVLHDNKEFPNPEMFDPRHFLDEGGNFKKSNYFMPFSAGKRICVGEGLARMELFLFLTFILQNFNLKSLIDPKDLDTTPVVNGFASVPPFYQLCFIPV
Sequence of Cytochrome P450 2D6 (P10635 whole entry): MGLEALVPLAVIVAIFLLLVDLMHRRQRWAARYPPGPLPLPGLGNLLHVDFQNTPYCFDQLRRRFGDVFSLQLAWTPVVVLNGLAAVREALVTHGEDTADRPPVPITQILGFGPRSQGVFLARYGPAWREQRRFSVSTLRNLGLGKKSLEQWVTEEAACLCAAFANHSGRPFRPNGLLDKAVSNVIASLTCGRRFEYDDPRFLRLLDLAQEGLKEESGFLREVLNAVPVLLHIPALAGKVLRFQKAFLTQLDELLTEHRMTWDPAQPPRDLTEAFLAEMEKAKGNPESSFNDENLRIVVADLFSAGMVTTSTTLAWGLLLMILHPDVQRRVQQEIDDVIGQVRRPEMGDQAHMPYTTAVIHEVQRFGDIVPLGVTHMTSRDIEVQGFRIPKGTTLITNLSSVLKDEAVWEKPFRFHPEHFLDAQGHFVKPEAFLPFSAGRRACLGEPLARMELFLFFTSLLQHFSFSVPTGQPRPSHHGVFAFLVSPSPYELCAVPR

With COc1ccc(-c2nnc(SCc3cccc(C)c3)n2N)cc1 the AC50 (Cytochrome P450 2C9) was “inconclusive”.
In the case of O=C(N/N=C\c1ccc2c(c1)CCC2)c1ccccc1O, the AC50 (Cytochrome P450 2C19) is reported as 0.251 µM (inconclusive), the AC50 (Cytochrome P450 2D6) is reported as 5.01 µM (inconclusive) and the AC50 (Cytochrome P450 2C9) is reported as “inconclusive”.
For COc1cccc(Nc2ncc3nc(-c4ccc(F)cc4)c(=O)n(CCC#N)c3n2)c1, the AC50 (Cytochrome P450 2C9) was “inconclusive”.
For CCOP(=O)(OCC)c1nc(/C=C/c2ccccc2)oc1NCc1ccc(OC)cc1, the IC50 (Aminopeptidase N) was 128 µM (active).
For C=C(C(=O)c1ccccc1)C(C)CC(=O)c1ccccc1 (configuration not stated), the EC50 [1] was 5.17 µM (active) and the EC50 [2] was 4.74 µM (active).
For NC(S)=Nc1nc2ccccc2nc1O, the IC50 [3] was > 20 µM (inactive).
With CN(C)C(=O)CSc1nc2ccccc2n1Cc1ccccc1 the EC50 (cells [4]) was > 350 µM (not active) and the EC50 (cells [5]) was > 350 µM (not active).
For Cc1cccc(NS(=O)(=O)c2ccc3c(c2)Cc2cc(S(=O)(=O)Nc4cccc(C)c4C)ccc2-3)c1C, the EC50 [1] was 11 µM (active) and the EC50 [2] was 10.2 µM (active).
In the case of COc1ccc2[nH]c(-c3cccc(N)c3)nc2c1, the EC50 (cells [4]) is reported as > 350 µM (not active) and the EC50 (cells [5]) is reported as 6.92 µM (active).
In the case of CN(C)S(=O)(=O)c1ccc(NC(=O)c2cc(F)c(F)cc2Cl)cc1, the AC50 (Cytochrome P450 2C19) is reported as 17.8 µM (inconclusive) and the AC50 (Cytochrome P450 2C9) is reported as “inconclusive”.
In the case of COc1ccc2c(c1[N+](=O)[O-])CCC/C2=N/OC(=O)c1ccccc1SC, the AC50 (Cytochrome P450 3A4) is reported as 15.8 µM (inconclusive) and the AC50 (Cytochrome P450 2C9) is reported as “inconclusive”.
For Cc1ccc(OCCCOc2cccc3cccnc23)cc1C, the AC50 (Cytochrome P450 3A4) was 28.2 µM (inconclusive), the AC50 (Cytochrome P450 2D6) was 17.8 µM (inconclusive) and the AC50 (Cytochrome P450 2C9) was “inconclusive”.
For CCOc1ccc(C(=O)NC(=S)Nc2cccc(NC(=O)c3ccco3)c2)cc1[N+](=O)[O-], the EC50 (cells [4]) was > 350 µM (not active) and the EC50 (cells [5]) was > 350 µM (not active).
For O=C(C[S+]([O-])c1cccc(C(F)(F)F)c1)Nc1ccccc1Cl (configuration not stated), the AC50 (Cytochrome P450 2C9) was “inconclusive” and the AC50 (Cytochrome P450 1A2) was 15.8 µM (inconclusive).
With CC(=O)Nc1cc2c(cc1Br)OCCO2 the EC50 (cells [4]) was > 350 µM (not active) and the EC50 (cells [5]) was > 350 µM (not active).
For Cc1cc(C(=O)c2ccc(C(C)(C)C)cc2)c(NC(=O)CCl)s1, the EC50 [1] was 9.12 µM (active), the AC50 [6] was 7.58 µM (active) and the EC50 (Protein RecA) was 2.97 µM (active). The EC50 [2] was 8.47 µM (active) and the EC50 [7] was 7.73 µM (active).
For COc1ccc(C)c2sc(N(CCCN(C)C)C(=O)c3ccc(S(=O)(=O)N(C)C)cc3)nc12, the IC50 [3] was > 20 µM (inactive).
For COc1ccccc1CN1C(=O)c2ccncc2C1=O, the AC50 (Cytochrome P450 3A4) was 11.2 µM (inconclusive) and the AC50 (Cytochrome P450 2C9) was “inconclusive”.
With CC[C@@H](C)[C@@H]1CN([C@@H](C)CN2CCC[C@H]2CN2C(N)=NC[C@@H]2Cc2ccccc2)C(=N)N1CCc1ccc(Cl)c(Cl)c1 the IC50 [3] was > 20 µM (inactive).
For O=C(CN1CCC(NC(=O)c2cccc(F)c2)CC1)NCc1cccs1, the IC50 (Aminopeptidase N) was 22.6 µM (active).
For O=C(O)/C=C/c1cnn(-c2ccccc2)c1, the EC50 (cells [4]) was > 350 µM (not active) and the EC50 (cells [5]) was 2.39 µM (active).
In the case of CCOCCCNC(=O)C1CCN(S(=O)(=O)N2CC(C)CC(C)C2)CC1 (configuration not stated), the AC50 (Cytochrome P450 3A4) is reported as 15.8 µM (inconclusive) and the AC50 (Cytochrome P450 2C9) is reported as “inconclusive”.
